Series [1] has as its target T1, human Dopamine D2L receptor (Homo sapiens, UniProt P14416).
T1 construct: expressed in transfected cells; host or cells: CHO-K1
The series can be described thus: cAMP HTRF functional assay (agonist/antagonist). It is filed as cell-based. As to the method: (§1) Functional profiling of agonist and antagonist activities of 8′-OH DHE on human Adrenergic α1D, Dopamine D2L, and Serotonin 5-HT1B, 5-HT1D, 5-HT1F, 5-HT3, 5-HT4e and 5-HT5A receptors (compared against the parent (DHE) molecule) was carried out as follows.
(§2) The SPA 35S-GTPγS tests were conducted with Euroscreen membrane preparations […]. The HTRF assays were conducted with recombinant cell lines. The receptor accession numbers, cellular background and reference compounds are as reported below in Table 10.
(2) DHE and 8′-OH DHE were tested for agonist and antagonist activity at the human Dopamine D2L receptor using cAMP HTRF assay (in triplicate) at the following nanomolar concentrations: […]
(§3) Agonist activity of the test compounds was expressed as a percentage of the activity of the reference agonist at its EC100 concentration. Antagonist activity of the test compounds was expressed as a percentage of the inhibition of the reference agonist activity at its EC80 concentration. Dose-response data from the test compounds were analyzed with XLfit (IDBS) software using nonlinear regression applied to a sigmoidal dose-response model and the following equation: […]

For series [2], the target named is T2, human Serotonin 5-HT1F receptor (Homo sapiens, UniProt P30939).
T2 construct: expressed in transfected cells; host or cells: CHO-K1
The series can be described thus: cAMP HTRF functional assay (agonist/antagonist). In kind it is cell-based. As to the method: as §1, §2
(4) DHE and 8′-OH DHE were tested for agonist and antagonist activity at the human Serotonin 5-HT1F and Serotonin 5-HT4E receptors using cAMP HTRF assay (in triplicate) at the following nanomolar concentrations: […]
as §3

Series [3] concerns the target T3, human Serotonin 5-HT3 receptor (Homo sapiens, UniProt P46098).
T3 construct: expressed in transfected cells; host or cells: CHO-K1 or HEK-293, coexpressing mitochondrial apoaequorin
The series can be described thus: Aequorin functional assay (agonist/antagonist). In kind it is cell-based. As for the experimental part:
as §1, §2
(§4) (1) DHE and 8′-OH DHE were tested for agonist and antagonist activity at the human Adrenergic α1D, Serotonin 5-HT3 and Serotonin 5-HT5A receptors using aequorin assay (in triplicate) at the following nanomolar concentrations:
(§5) (5) DHE was tested for agonist and antagonist activity at the human Adrenergic α1D, Serotonin 5-HT3 and Serotonin 5-HT5A receptors using aequorin assay (in triplicate), and at the human Dopamine D2L, Serotonin 5-HT1F and Serotonin 5-HT4E receptors using cAMP HTRF assay (in triplicate) at the following nanomolar concentrations:
(§6) (6) 8′-OH DHE was tested for agonist and antagonist activity at the human Adrenergic α1D, Serotonin 5-HT3 and Serotonin 5-HT5A receptors using aequorin assay (in triplicate), at the human Dopamine D2L, Serotonin 5-HT1F and Serotonin 5-HT4E receptors using cAMP HTRF assay (in triplicate), and at the human Serotonin 5-HT1B and Serotonin 5-HT1D receptors using GTPγS assay (in triplicate) at the following nanomolar concentrations:
(§7) CHO-K1 or HEK-293 cells coexpressing mitochondrial apoaequorin and recombinant human […], or recombinant human Serotonin 5-HT3 receptor, or recombinant human Serotonin 5-HT5A receptor grown to mid-log phase in culture media without antibiotics were detached with PBS-EDTA, centrifuged and resuspended in assay buffer (DMEMHAM's F12 with HEPES, without phenol red+0.1% BSA protease free) at a concentration of 1×10^6 cells/mL. Cells were incubated at RT for at least 4 hours with coelenterazine h. The reference agonist was tested to evaluate performance of the assay on each day of the test and to determine EC50. For agonist testing, 50 μL of cell suspension was mixed with 50 μL of test compound or reference agonist in a 96-well plate. The resulting emission of light was recorded using Hamamatsu Functional Drug Screening System 6000 (FDSS 6000 luminometer). For antagonist testing, 100 μL of the reference agonist at its EC80 was injected on the mix of cells and test compounds, following an incubation of 15 minutes after the first injection. The resulting emission of light was recorded using the FDSS 6000 luminometer. To standardize the emission of recorded light (determination of the ‘100% signal’) across plates and across different experiments, some of the wells contained 100 μM digitonin or a saturating concentration of ATP (20 μM).
as §3

Series [4] concerns the target T4, human Adrenergic α1D receptor (Homo sapiens, UniProt P25100).
T4 construct: expressed in transfected cells; host or cells: CHO-K1 or HEK-293, coexpressing mitochondrial apoaequorin
Put plainly: Aequorin functional assay (agonist/antagonist). In kind it is cell-based. As to the method: as §1, §2, §4, §5, §6, §7, §3

Series [5] deals with T5, human Serotonin 5-HT5A receptor (Homo sapiens, UniProt P47898).
T5 construct: expressed in transfected cells; host or cells: CHO-K1 or HEK-293, coexpressing mitochondrial apoaequorin
The series can be described thus: Aequorin functional assay (agonist/antagonist). It is filed as cell-based. As to the method: as §1, §2, §4, §5, §6, §7, §3

For series [6] the following is noted: subcutaneous, 1.5 mM; cited from earlier work.

Read-outs that look alike come from different tables or passages of the source.

T5 sequence (P47898 whole entry): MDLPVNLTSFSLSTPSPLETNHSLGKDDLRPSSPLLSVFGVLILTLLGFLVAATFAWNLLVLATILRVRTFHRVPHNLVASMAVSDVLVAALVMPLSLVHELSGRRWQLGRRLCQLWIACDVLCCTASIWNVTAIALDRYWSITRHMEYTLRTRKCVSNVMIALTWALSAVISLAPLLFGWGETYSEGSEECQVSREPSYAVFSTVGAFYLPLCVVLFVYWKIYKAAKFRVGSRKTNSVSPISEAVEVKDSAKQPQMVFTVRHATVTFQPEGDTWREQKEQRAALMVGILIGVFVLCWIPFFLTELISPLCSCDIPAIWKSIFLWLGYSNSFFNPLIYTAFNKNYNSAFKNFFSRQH
T2 sequence (P30939 whole entry): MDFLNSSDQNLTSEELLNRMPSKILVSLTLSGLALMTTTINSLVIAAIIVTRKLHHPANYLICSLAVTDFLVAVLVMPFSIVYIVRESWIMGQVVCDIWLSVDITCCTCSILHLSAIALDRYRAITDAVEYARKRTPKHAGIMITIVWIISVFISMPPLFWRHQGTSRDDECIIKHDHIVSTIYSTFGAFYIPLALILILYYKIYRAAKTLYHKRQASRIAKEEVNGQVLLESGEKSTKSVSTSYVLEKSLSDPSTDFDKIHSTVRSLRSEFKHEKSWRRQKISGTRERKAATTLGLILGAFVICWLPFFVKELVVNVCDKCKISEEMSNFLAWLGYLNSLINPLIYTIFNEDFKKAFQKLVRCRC
T1 sequence (P14416 whole entry): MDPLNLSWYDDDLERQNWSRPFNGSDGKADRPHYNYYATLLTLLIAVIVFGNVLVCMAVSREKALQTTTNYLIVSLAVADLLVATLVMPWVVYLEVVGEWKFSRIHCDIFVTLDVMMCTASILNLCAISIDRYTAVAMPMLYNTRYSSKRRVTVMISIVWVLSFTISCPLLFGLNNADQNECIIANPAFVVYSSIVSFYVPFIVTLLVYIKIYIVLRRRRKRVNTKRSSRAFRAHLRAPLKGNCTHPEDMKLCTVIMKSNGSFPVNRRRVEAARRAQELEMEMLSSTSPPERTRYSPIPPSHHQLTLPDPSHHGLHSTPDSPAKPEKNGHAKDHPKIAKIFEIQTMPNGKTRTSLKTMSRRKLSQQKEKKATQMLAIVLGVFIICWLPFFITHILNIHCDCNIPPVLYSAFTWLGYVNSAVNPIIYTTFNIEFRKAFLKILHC
T4 sequence (P25100 whole entry): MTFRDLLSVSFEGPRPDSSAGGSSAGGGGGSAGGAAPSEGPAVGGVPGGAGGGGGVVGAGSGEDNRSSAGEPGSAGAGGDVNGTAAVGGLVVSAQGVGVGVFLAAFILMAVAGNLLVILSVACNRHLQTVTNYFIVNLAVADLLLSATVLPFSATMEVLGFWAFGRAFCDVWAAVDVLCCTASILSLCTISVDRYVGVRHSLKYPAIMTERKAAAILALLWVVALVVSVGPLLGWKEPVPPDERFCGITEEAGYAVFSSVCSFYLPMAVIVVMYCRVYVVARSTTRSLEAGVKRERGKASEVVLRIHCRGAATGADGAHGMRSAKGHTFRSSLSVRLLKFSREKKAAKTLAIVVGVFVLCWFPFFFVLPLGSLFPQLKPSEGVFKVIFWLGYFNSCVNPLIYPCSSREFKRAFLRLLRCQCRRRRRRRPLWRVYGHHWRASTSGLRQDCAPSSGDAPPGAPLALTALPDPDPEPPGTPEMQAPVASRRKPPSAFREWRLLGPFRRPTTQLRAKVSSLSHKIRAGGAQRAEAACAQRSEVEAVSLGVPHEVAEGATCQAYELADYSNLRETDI
T3 sequence (P46098 24-478): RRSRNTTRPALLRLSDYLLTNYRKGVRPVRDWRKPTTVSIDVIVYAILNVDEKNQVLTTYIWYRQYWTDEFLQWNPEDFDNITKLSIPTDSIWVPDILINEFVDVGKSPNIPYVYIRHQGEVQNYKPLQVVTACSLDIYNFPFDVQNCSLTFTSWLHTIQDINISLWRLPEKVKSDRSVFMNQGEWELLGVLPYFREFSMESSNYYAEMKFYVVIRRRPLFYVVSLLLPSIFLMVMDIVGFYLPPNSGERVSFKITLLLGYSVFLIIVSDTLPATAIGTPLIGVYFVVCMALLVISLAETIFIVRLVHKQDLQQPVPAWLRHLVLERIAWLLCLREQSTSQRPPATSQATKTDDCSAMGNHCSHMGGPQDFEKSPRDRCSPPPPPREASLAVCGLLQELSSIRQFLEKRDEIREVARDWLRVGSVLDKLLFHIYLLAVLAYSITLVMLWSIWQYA

On to `CN1C[C@H](C(=O)N[C@]2(C)O[C@@]3(O)[C@@H]4CCC(O)N4C(=O)[C@H](Cc4ccccc4)N3C2=O)C[C@@H]2c3cccc4[nH]cc(c34)C[C@H]21` (some centres unmarked) [8′-OH DHE, 8′-Hydroxy-Dihydroergotamine], for which the EC50 in series [1] (Dopamine D2L, cAMP HTRF, read-out: Functional activity (agonist)) came out at 1.61 nM. Further, the “Agonist and antagonist activity” value in series [2] was “inactive”. Further, the IC50 is greater than 10000 nM in series [3] (Serotonin 5-HT3, aequorin, read-out: Functional activity (antagonist)); 0.61 nM in series [4] (Adrenergic α1D, aequorin, vs reference agonist at EC80, read-out: Functional activity (antagonist)); 73.3 nM in series [5] (Serotonin 5-HT5A, aequorin, read-out: Functional activity (antagonist)).

`CN1C[C@H](C(=O)N[C@]2(C)O[C@@]3(O)[C@@H]4CCCN4C(=O)[C@H](Cc4ccccc4)N3C2=O)C[C@@H]2c3cccc4[nH]cc(c34)C[C@H]21` [DHE, Dihydroergotamine]: the EC50 in series [1] was 0.835 nM. Further, the “Agonist and antagonist activity” value in series [2] is “inactive”. In addition, the IC50 in series [3] came to 3850 nM; in series [4], 1.32 nM; in series [5], 48.8 nM. Besides, the “nausea, share of treated patients” value in series [6] was roughly 16%.
